How the values were obtained:
Type in all cases: in vivo
[1] = tested on: Housefly [Musca domestica]; test: Housefly contact mortality in dishes (HF), 48 hours; conditions: μg of test compound per 25 female flies
Procedure, shortened: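 LC50, as μg compound per 25 female flies, comes from dosage-mortality curves with doses from 100 μg downward. Residues were made by evaporating acetone plus 0.01% peanut oil in dishes, onto which 1-2-day-old females were caged; deaths were counted after 48 hours.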

[2] = tested on: Black Bean Aphid [Aphis fabae (Scop.)]; test: Black bean aphid spray test on nasturtium (BBA), 48 hours; conditions: percent of test compound in sprayed solution
Procedure, shortened: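 LC50, given as percent test compound in the sprayed liquid, was calculated from dosage-mortality curves using concentrations from 0.05% downward. Sprays in 50:50 acetone-water went to runoff on ~5 cm nasturtiums carrying 25-50 aphids of mixed ages, one day after infestation. Deaths were counted 48 h later under greenhouse conditions.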

[3] = tested on: Tobacco Budworm [Heliothis virescens (Fabricius)] larvae; test: Tobacco budworm larvae, contact (TBW-C), 5 days; conditions: percent in solution, second-instar larvae
Procedure, shortened: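 Cotton cotyledons dipped 2–3 s in compound in 50-50 acetone-water, dried, then infested with 5 second-instar larvae and held 5 days at high humidity. Mortality scored; LC50 from dosage-mortality curves, expressed as percent compound in solution, concentrations from 0.1% downward.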

[4] = tested on: Tobacco Budworm [Heliothis virescens (Fabricius)] eggs; test: Tobacco budworm eggs (TBW-E); conditions: percent in solution; 2-day old eggs
Procedure, shortened: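 Paper towel patches bearing 2-day old eggs were dipped in acetone solutions of compound, then set in petri dishes over larval rearing medium at 78° F. Mortality was scored once all control eggs had hatched and larvae were feeding. LC50, from dosage-mortality curves, is given as percent compound in solution.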

[5] = tested on: Beet Armyworm (Spodoptera exigua); test: Beet armyworm leaf dip (BAW), 5 days; conditions: percent in solution; second-instar larvae; five days
Procedure, shortened: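 Five second-instar larvae per dish fed on dried sugar beet leaves previously dipped 2–3 s in acetone-water (1:1) test solutions up to 0.1%. Kept at high humidity, with deaths counted after five days; LC50 as % in solution via dosage-mortality curves.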

[6] = tested on: Cabbage Looper [Trichoplusia ni (Hubner)]; test: Cabbage looper leaf dip (CL), 3-5 days; conditions: percent in solution, second-instar larvae
Procedure, shortened: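 Compounds in 50-50 acetone-water were applied by dipping squash cotyledons (about 1×1.5 in) for 2-3 s; dried leaves went into petri dishes on moist filter paper with 5 second-instar larvae under high humidity. Mortality was scored after 3-5 days; LC50 from dosage-mortality curves, as percent compound in solution.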

[7] = tested on: Aster Leafhopper [Macrosteles fascifrens (Stal)]; test: Aster leafhopper on dipped oat seedlings (LH), 48 hours; conditions: percent in solution, adults/nymphs
Procedure, shortened: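 LC50 values, given as percent of test compound in the dip solution, were derived from dosage-mortality curves over concentrations from 0.05% downward. Mortality was counted 48 hours after ten leafhopper adults/nymphs were enclosed on treated seedlings. The seedlings were oats, about 10 cm tall, briefly dipped in 50-50 acetone-water.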

[8] = tested on: Rice water weevil [Lissorhoptrus oryzophilus (Kuschel)]; test: Rice water weevil topical (RWW), 48 hours; conditions: μg of test compound per weevil, female adults
Experimental: The compounds in Tables 1 and 2 above were tested for insecticidal activity using the following testing procedures. LC50 values, based on the results of these tests and calculated according to dosage-mortality curves, are expressed in Table 3.
Rice water weevil [Lissorhoptrus oryzophilus (Kuschel)]:
Test compounds were diluted in acetone. Droplets (1 ul) of test solutions were applied to the ventral abdomens of ten female adult weevils. The treated weevils were placed in containers with wet cotton balls and rice foliage. The containers were covered and kept at a temperature of about 25° C. Mortality was recorded after 48 hours. Test concentrations ranged from […] down to that at which 50% mortality occurred. The LC50 values are expressed below in Table 3 under the heading "RWW" in terms of μg of test compound per weevil.

[9] = tested on: Maize weevil [Sitophilus zeamais (Motschulsky)]; test: Maize weevil on dipped corn seeds (MW), 48 hours; conditions: percent in solution, adult weevils
Procedure, shortened: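 LC50, given as percent of compound in dipping solution, comes from dosage-mortality curves over concentrations descending from 0.01%. Four corn seeds soaked 2-3 s in 50:50 acetone:water solution were dried and held with 10 adult weevils, about 25° C, mortality read after 48 h.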

SMILES | LC50 HF [1] | LC50 BBA [2] | LC50 TBW C (contact) [3] | LC50 TBW E (eggs) [4] | LC50 BAW [5] | LC50 CL [6] | LC50 LH [7] | LC50 RWW [8] | LC50 MW [9]
CC(C)C(=Nc1cc(F)cc(F)c1)OCc1cccc(Oc2ccccc2)c1 [Compound 55] | > 100 µg | 0.003% | 0.004% | 0.06% | 0.006% | 0.0017% | 0.0005% | > 2.5 µg | 
FC(F)(F)c1cccc(N=C(OCc2cccc(Oc3ccccc3)c2)C(Cl)Cl)c1 [Compound 66, N-(3-Trifluoromethylphenyl)-O-(3-phenoxybenzyl)dichloroacetimidate] | 9.7 µg | 0.0003% |  | 0.06% | 0.0065% | < 0.0025% | 0.001% | > 2.5 µg | 
CC(C)C(=Nc1ccc(F)c(Cl)c1)OCc1cccc(Oc2ccccc2)c1 [Compound 81, N-(3-Chloro-4-fluorophenyl)-O-(3-phenoxybenzyl)isobutyrylimidate] | 4 µg | 0.001% | 0.0009% | 0.007% | 0.003% | 0.0006% | 0.0003% | > 0.5 µg | 0.005%
CC(C)C(=Nc1ccc(F)c(Cl)c1)OCc1ccc(F)c(Oc2ccccc2)c1 [Compound 82] | 2.5 µg | 0.00021% | 0.0008% | 0.006% | 0.0025% | 0.00018% | 0.0001% | 0.086 µg | 
CC(C)C(=Nc1ccc(F)c(Cl)c1)OCc1cccc(Oc2ccc(F)cc2)c1 [Compound 89] | 5 µg | 0.003% | 0.0005% | 0.04% | 0.009% | 0.00003% | 0.001% | > 2.5 µg | 0.005%
CC(C)C(=Nc1ccc2c(c1)OCO2)OCc1ccc(F)c(Oc2ccccc2)c1 [Compound 181] | 25 µg |  | 0.001% | 0.01% | 0.001% | 0.0005% |  | > 2.5 µg | 0.005%
CC(C)C(=Nc1ccc2c(c1)OC(F)(F)O2)OCc1cccc(Oc2ccc(F)cc2)c1 [Compound 244] | 14 µg | 0.0006% | 0.00025% | > 0.1% | 0.002% | 0.00004% |  | 0.09 µg | 0.0025%
CC(C)C(=Nc1ccc2c(c1)OC(F)(F)O2)OCc1cccc(Oc2ccccc2)c1 [Compound 245] | 20 µg | 0.0003% | 0.0015% | 0.016% | 0.001% | 0.0035% |  | > 2.5 µg | 0.006%
CC(C)C(=Nc1ccc(F)c(I)c1)OCc1ccc(F)c(Oc2ccc(F)cc2)c1 [Compound 281] | 5 µg | 0.0003% | 0.00025% | 0.006% | 0.0027% | 0.00002% |  | > 2.5 µg | 0.005%
CC(C)C(=Nc1ccc2c(c1)OC(F)(F)O2)OCc1ccc(F)c(Oc2ccccc2)c1 [Compound 285] | 36 µg |  | 0.00017% | 0.005% | 0.0006% | 0.000075% |  | 0.13 µg | 0.005%
CC(C)C(=Nc1ccc(F)c(F)c1)OCc1ccc(F)c(Oc2ccc(Cl)cc2)c1 [Compound 295] | 7.8 µg | 0.0003% | 0.0005% | 0.01% |  | 0.00004% | 0.0001% | > 2.5 µg | 0.0053%
CC(C)C(=Nc1ccc(F)c(C(F)(F)F)c1)OCc1ccc(F)c(Oc2ccccc2)c1 [Compound 300] | 14 µg | 0.0003% | 0.001% | 0.024% |  | 0.0003% | 0.00002% | 0.075 µg | 0.01%
CC(C)C(=Nc1ccc(C(F)(F)F)cc1)OCc1ccc(F)c(Oc2ccc(Cl)cc2)c1 [Compound 324] | > 100 µg | 0.0003% | 0.0004% | 0.025% | 0.0024% | 0.00014% |  | 0.06 µg | 
CC(C)C(=Nc1ccc(F)cc1)OCc1ccc(F)c(Oc2ccc(Cl)cc2)c1 [Compound 325] | 5 µg | 0.0001% | 0.0006% | 0.037% | 0.0025% | 0.00012% |  | > 2.5 µg | 
CC(C)C(=Nc1ccc(F)c(Cl)c1F)OCc1ccc(F)c(Oc2ccc(F)cc2)c1 [Compound 330] | 5 µg | 0.0001% | 0.00035% | 0.037% |  | 0.00012% | < 0.05% | 0.06 µg | 0.001%
CC(C)C(=Nc1ccc(F)c(Cl)c1F)OCc1cccc(Oc2ccc(Cl)cc2)c1 [Compound 331] | 20 µg | > 0.05% | 0.0004% | 0.04% | 0.002% | 0.0002% |  | > 2.5 µg | 
CC(C)C(=Nc1ccc(F)c(F)c1)OCc1ccc(F)c(Oc2ccccc2)c1 [Compound 336] | 3.6 µg | 0.0003% | 0.0005% | 0.02% | 0.001% | 0.00017% |  | > 2.5 µg | 0.0091%
CC(C)C(=Nc1ccc(C(F)(F)F)cc1)OCc1ccc(F)c(Oc2ccccc2)c1 [Compound 337] | 21 µg | 0.0003% | 0.0005% | 0.008% | 0.0005% | 0.0007% |  | 0.067 µg | 0.0053%
CC(C)C(=Nc1ccc(F)c(F)c1F)OCc1ccc(F)c(Oc2ccc(F)cc2)c1 [Compound 349] | 4.9 µg | > 0.05% | 0.0004% | > 0.1% | > 0.1% | 0.00007% |  | > 2.5 µg | > 0.01%
CC(C)C(=Nc1ccc(F)c(Cl)c1F)OCc1ccc(F)c(Oc2ccccc2)c1 [Compound 451] | 3.6 µg | 0.001% | 0.00025% | > 0.1% |  | 0.0001% | 0.0002% | 0.065 µg | 0.0051%
CC(C)C(=Nc1ccc(F)c(Cl)c1)OCc1cccc(Oc2ccc(F)cc2)n1 [Compound 461] | 6 µg | 0.001% |  | 0.01% | 0.0035% | 0.00008% |  | > 2.5 µg | 0.0075%

From patent US5045566A, “Novel imidate insecticides” (ICI Americas Inc., priority 1989, dated 1991)
